Source: publication PMC11919252 (eLife, 2025)
“Also recorded” adds a separate entry of the source. Counter-ions that a name gives are not always drawn.

Experiments:
[1] = tested on: hindpaw of WT and DKO mice; assay: Hindpaw swelling (edema), plethysmometer; type: in vivo, mouse; settings: for Swelling of the hindpaw, DKO versus WT: observation after injection of CFA, PGE2, AITC or capsaicin
Description: (§1) Mice were anesthetized using isoflurane. 200 μl of Evans Blue dye was injected into the mouse’s tail vein. 15 mins later, one hindpaw was injected with an algogen. After a further 30 min, the volume of each paw was measured by displacement using a plethysmometer (Ugo Basile). Both paws were then cut at the ankle and placed in tubes in the oven at 55 °C for 24 hr to dry. 1 ml of formamide was then added to each paw and incubated for 4-6 days at 55 °C to extract the dye from the paw tissue. 50 μl samples of dye-infused formamide from each paw were then dispensed to a 96-well plate in duplicate, along with a range of Evans blue dilutions in formamide to generate a standard curve. The optical density of each sample was then measured using a plate-reader, and the concentration of Evans Blue per paw sample interpolated from the standard curve to generate an index of extravasation in that paw.

[2] = tested on: WT and Tac1::Calca DKO mice; assay: AITC-evoked licking; type: in vivo, mouse; settings: 1% AITC in saline, 20 µl intraplantar; 5 min; WT n=12, DKO n=12
Description: (§2) 0.3% capsaicin in 80% saline / 10% Tween-80 /10% ethanol or 1% AITC in saline was injected into the plantar surface of the hind paw. The injected volume for both was 20 µl. Mice were video-taped for 5 min. A blinded observer scored the amount of time in seconds the mouse spent licking the injected paw in a 5-min time period.

[3] = tested on: hindpaw of WT and DKO mice; assay: Plasma extravasation, Evans blue assay; type: in vivo, mouse; settings: for Paw swelling and plasma extravasation (images): injected (left) compared to uninjected (right) paw, WT and DKO mice
Description: as §1

[4] = tested on: CGRP receptor (Calcrl and Ramp1) in CGRP-sniffer HEK293 cells co-cultured with DRG neurons; assay: Co-culture of DRG neurons and CGRP-sniffer cells (CGRP release); type: cell-based, mouse
[5] = tested on: WT and Tac1::Calca DKO mice; assay: Conditioned taste aversion; type: in vivo, mouse; settings: LiCl 200 mg/kg; saccharin 15 mM; WT n=7, DKO n=6
Description: Mice were single-housed and habituated for 3 days to drink from two glass bottles with stainless-steel ball-bearing spouts. Mice then received 3 days of training, where they were water-deprived for 22 hr followed by 30 min exposure to a single water-containing bottle, then 90 min exposure to both bottles. On the conditioning day, after 22 hr of water deprivation, mice were exposed to a single bottle containing saccharin water (15 mM) for 45 min. Mice were then injected with lithium chloride (200 mg/kg) or PBS, and then given ordinary water for 75 min. The animals were then water deprived for a further 22 hr. On the test day, mice were simultaneously exposed to a bottle containing water and a bottle containing saccharin for 45 min. The volume of each solution consumed was measured by weighing the bottles before and after. To calculate the saccharin preference index of each animal, the volume of saccharin consumed was divided by the total of fluid consumed, with a value less than 0.5 indicating the development of an aversion to saccharin.

[6] = tested on: WT and Tac1::Calca DKO mice; assay: Inflammatory heat hypersensitivity (Hargreaves); type: in vivo, mouse; settings: PGE2 20 μl, 500 nM intraplantar; up to 120 min; WT n=10, DKO n=10
Description: The radiant heat stimulus was aimed for the centre of the plantar region of the mouse’s hind paw. The active intensity of the low stimulus was 40 intensity units, and of the high stimulus 55. The response latency was recorded for five trials with 10 min breaks in between each trial.
(§3) CFA and PGE2 was purchased from Sigma. 20 μl of CFA was injected into the heel of the hind paw. PGE2 (20 μl, 500 nM) was injected into the plantar surface of the hindpaw, and behavior was assessed over the same time-frame that produces in vivo sensitization of nociceptor responses (up to 120 min). Inflammation-induced hypersensitivity was measured using the Hargreaves and the von Frey, as described above.

[7] = tested on: WT and Tac1::Calca DKO mice; assay: Inflammatory mechanical hypersensitivity (von Frey); type: in vivo, mouse; settings: PGE2 20 μl, 500 nM intraplantar; up to 120 min; WT n=6, DKO n=6
Description: Punctate mechanical sensitivity was measured using the up-down method of Chaplan to obtain a 50% withdrawal threshold ([Chaplan et al., 1994]). Mice were habituated on a mesh wire stand for 1 hr. A 0.16 g Von Frey hair was applied to the plantar region of the paw for 2 s. A response was recorded when the mouse swiftly lifted its paw in response to the stimulus. […] To calculate the 50% withdrawal threshold, five responses surrounding the 50% threshold were obtained after the first change in response. The pattern of responses was used to calculate the 50% threshold = (10[χ+κδ]/10,000), where χ is the log of the final von Frey filament used, κ=tabular value for the pattern of responses and δ the mean difference between filaments used in log units. The log of the 50% threshold was used to calculate summary and test statistics.
as §3

[8] = tested on: WT and Tac1::Calca DKO mice; settings: 0.6% acetic acid, intraperitoneal, 10 μl/g; 15 min from 5 min after injection; WT n=9, DKO n=7
Description: Mice were habituated on a plexiglass stand for 1 hr. 0.6% of acetic acid was injected intraperitoneally at a dose of 10 μl/g weight of the animal. Mice were videotaped for 20 min. The number of writhes was quantified post-hoc by a blinded observer during a 15-min interval between 5 and 20 min after injection.

[9] = tested on: WT and Tac1::Calca DKO mice; assay: Capsaicin-evoked licking; type: in vivo, mouse; settings: 0.3% capsaicin, 20 µl intraplantar, 5 min
Description: as §2

[10] = tested on: Substance P receptor (NKR1) in Substance P-sniffer HEK293 cells co-cultured with DRG neurons; assay: Co-culture of DRG neurons and Substance P-sniffer cells (Substance P release); type: cell-based, mouse; settings: capsaicin 10 μM
[11] = tested on: dorsal horn of WT and DKO mice; assay: Capsaicin-evoked dorsal horn Fos staining; type: in vivo, mouse; settings: capsaicin 0.3% hindpaw; WT n=5, DKO n=4
Description: […]. After 1 week, mice were habituated then the stimulation was performed. For capsaicin-evoked dorsal horn Fos, capsaicin (0.3%) was injected into the right hindpaw of mice in chambers on a plexiglass stand. For Fos elicited by dynamic allodynia stimulation, mice that received a spared nerve injury procedure 3 weeks prior were stimulated with a paint brush while housed on a wire mesh stand (3x10 min stimulation period, with 1-min rest every 10 min). Note that for SNI experiments, the CTB was injected into the contralateral paw, because severing two branches of the sciatic nerve would have prevented efficient CTB transit in the ipsilateral paw. The mice were perfused as above and spinal cords were harvested 75–120 min after stimulation. The sections were incubated in a blocking buffer (5% goat serum; 0.1% Triton X-100; PBS) for 3 hr at room temperature on a shaker. The sections were incubated in 1:1000 rabbit anti Fos primary antibody (Cell Signaling Technology, Phospho-c-Fos (Ser32) (D82C12) XP Rabbit mAb, #5348) at room temperature overnight. […] This ensured Fos activity was measured only in those sections strongly innervated by the hindpaw. The number of Fos-positive nuclei in the dorsal horn were quantified in ImageJ/FIJI software (National Institute of Health) by a blinded observer using a semi-automated procedure. […]

[12] = tested on: WT and Tac1::Calca DKO mice; assay: Chloroquine-induced itch; type: in vivo, mouse; settings: chloroquine 20 μl of 25 μM intradermal, nape of neck; 15 min; WT n=8, DKO n=11
Description: Hair from the nape of the mouse’s neck was removed 2–3 days prior to behavioral experiments using VEET hair removal cream and the area thoroughly washed and moisturizing cream applied. Mice were habituated to transparent acrylic chambers (10cm x 10cm x 13 cm) 30 min prior to injection. Post habituation, a blinded investigator injected 20 μl of 25 μM Chloroquine diphosphate salt (Sigma-Aldrich: C6628) solution in 0.9% saline intradermally into the nape of the neck using a 31 G insulin syringe. Videos were quantified by a separate blinded investigator with a scratching bout counted each time the mouse attended to the injected area with the hind paw after the paw was removed from the floor or mouth.

`C=CCN=C=S` [AITC, allyl isothiocyanate] was tested, and the “Swelling of the hindpaw, DKO versus WT” value [1] was “provoked swelling of the hindpaw of DKO mice to a similar extent as WT mice”, the “Licking behavior after AITC” value [2] was “evoked similar licking behavior to capsaicin that was unaffected by peptide deletion” and the “Paw swelling and plasma extravasation (images)” value [3] was “both WT and DKO mice show paw swelling and plasma extravasation”.
In the case of `CC(C)C[C@H](NC(=O)CNC(=O)[C@H](C)NC(=O)[C@H](CC(C)C)NC(=O)[C@H](CCCNC(=N)N)NC(=O)[C@H](Cc1c[nH]cn1)NC(=O)[C@@H](NC(=O)[C@@H](NC(=O)[C@@H]1CSSC[C@H](NC(=O)[C@@H](N)CO)C(=O)N[C@@H](CC(N)=O)C(=O)N[C@@H]([C@@H](C)O)C(=O)N[C@@H](C)C(=O)N[C@@H]([C@@H](C)O)C(=O)N1)C(C)C)[C@@H](C)O)C(=O)N[C@@H](CC(C)C)C(=O)N[C@@H](CO)C(=O)N[C@@H](CCCNC(=N)N)C(=O)N[C@@H](CO)C(=O)NCC(=O)NCC(=O)N[C@H](C(=O)N[C@H](C(=O)N[C@@H](CCCCN)C(=O)N[C@@H](CC(=O)O)C(=O)N[C@@H](CC(N)=O)C(=O)N[C@@H](Cc1ccccc1)C(=O)N[C@H](C(=O)N1CCC[C@H]1C(=O)N[C@H](C(=O)N[C@@H](CC(N)=O)C(=O)N[C@H](C(=O)NCC(=O)N[C@@H](CO)C(=O)N[C@@H](CCC(=O)O)C(=O)N[C@@H](C)C(=O)N[C@@H](Cc1ccccc1)C(N)=O)C(C)C)[C@@H](C)O)C(C)C)C(C)C)C(C)C` [CGRPα], the “CGRP-sniffer activation by exogenous CGRPα” value ([4]; CGRPα saturating concentration 100–1000 nM, co-culture with WT and DKO DRG, n=18 wells per genotype) is reported as “activates CGRP-sniffers in both conditions”.
In the case of `[Cl-].[Li+]` [LiCl, lithium chloride], the “Conditioned taste aversion to saccharin” value [5] is reported as “pronounced aversion to the usually-preferred saccharin; also recorded: strong and indistinguishable conditioned taste aversion in both WT and DKO mice”.
`CCCCC[C@H](O)/C=C/[C@H]1[C@H](O)CC(=O)[C@@H]1C/C=C\CCCC(=O)O` [PGE2, Prostaglandin E2] was tested, and the “Swelling of the hindpaw, DKO versus WT” value [1] was “provoked swelling of the hindpaw of DKO mice to a similar extent as WT mice”, the “Heat hypersensitivity, Hargreaves” value [6] was “short-lasting heat and mechanical hypersensitivity to a similar extent in both WT and DKO mice” and the “Mechanical hypersensitivity, von Frey” value [7] was “short-lasting heat and mechanical hypersensitivity to a similar extent in both WT and DKO mice”.
For `CC(=O)O` [acetic acid], the Writhing behavior [8] was “comparable writhing behavior in both WT and DKO mice”.
In the case of `COc1cc(CNC(=O)CCCC/C=C/C(C)C)ccc1O` [capsaicin], the “CGRP-sniffer activity evoked by DKO neurons” value ([4]; capsaicin application, DKO DRG neurons) is reported as “markedly reduced activity”, the “CGRP-sniffer calcium response evoked by capsaicin” value ([4]; capsaicin application, WT DRG neurons) is reported as “strong increases in calcium” and the “CGRP-sniffer GCaMP6s fluorescence” value ([4]; capsaicin, WT versus DKO DRG co-culture, n=18 wells from 3 mice per genotype) is reported as “increase in CGRP-sniffer GCaMP6s fluorescence when cultured with DRGs from WT, but not DKO, mice”. The “Licking responses after capsaicin” value ([9]; WT n=9, DKO n=8) was “evoked coping-like licking responses in both genotypes”, the “Licking, difference WT versus DKO after capsaicin” value ([9]; unpaired t-test) was “differences did not reach statistical significance” and the “Paw swelling by volume, WT versus DKO” value ([1]; capsaicin injection, 30 min, normalized to uninjected paw, WT n=9, DKO n=7) was “no appreciable differences in capsaicin-induced swelling between WT and DKO mice”. The “Swelling of the hindpaw, DKO versus WT” value [1] was “provoked swelling of the hindpaw of DKO mice to a similar extent as WT mice”, the “Substance P-sniffer GCaMP response evoked by capsaicin” value ([10]; DKO DRG neurons) was “no Substance P-sniffer cell responses” and the “Substance P-sniffer GCaMP6s fluorescence” value ([10]; WT versus DKO DRG co-culture, n=12 wells from 2 mice per genotype) was “increase in Substance P-sniffer GCaMP6s fluorescence when cultured with DRGs from WT, but not DKO, mice”. For the same molecule, the “Substance P-sniffer GCaMP response evoked by capsaicin” value ([10]; control (WT) DRG neurons) was “robust GCaMP responses”, the “Capsaicin-evoked dorsal horn Fos expression” value [11] was “No differences in dorsal horn Fos expression were observed” and the Plasma extravasation ([3]; capsaicin injection, Evans blue optical density normalized to uninjected paw, WT n=9, DKO n=7) was “plasma extravasation was intact in DKO mice”. The “Paw swelling and plasma extravasation (images)” value [3] was “both WT and DKO mice show paw swelling and plasma extravasation”.
With `CCN(CC)CCCC(C)Nc1ccnc2cc(Cl)ccc12` (centres unmarked) [chloroquine, Chloroquine diphosphate salt] the Scratching [12] was “DKO mice scratched robustly”.
